Results published in article PMC8811960, “A Novel 2-Carbon-Linked Dimeric Artemisinin With Potent Antileukemic Activity and Favorable Pharmacology” (Frontiers in Oncology, 2022).
pIC50: −log10 of the molar value. Like-named read-outs stand apart in the source and are kept apart here.

Columns and labels:
K562 = experiment: alamarBlue growth inhibition, K562; format: cell-based; details: Homo sapiens, K562, 48h, mean of 2 independent assays ± SD
Procedure: (§1) Cytotoxicity was assessed using alamarBlue assays (Life Technologies, Grand Island, NY) following manufacturer’s guidelines. Cell death was verified by Annexin V/7-aminoactinomycin D (7AAD) staining (BioLegend, San Diego, CA) per manufacturer’s guidelines.

10 human AML cell lines = experiment: alamarBlue growth inhibition, panel of 10 human AML cell lines; format: cell-based
Procedure: as §1
Cell lines with adverse risk cytogenetic and molecular features, e.g. MLL rearrangements (ML2, MOLM14, MV4;11, THP1), FLT3-ITD (MOLM14, MV4;11), TP53 mutations (KG1a, ML2, THP1, U937), and NRAS/KRAS mutations (ML2, THP1), were among those exquisitely sensitive to ART631, with IC50s < 50 nM. The K562 cell line was the only exception, as it was resistant to all 3 of these ARTs. Based on this in vitro activity data combined with the drug stability data described below, ART631 was prioritized over ART576 for further in vitro and in vivo antileukemic efficacy experiments here ( Table 2 ).

[1] = Stability in human plasma (EDTA); format: in vitro ADME; details: 10 µM, 37°C, 1h
Procedure: (§2) The metabolic stability of ART631 was assessed in human and mouse plasma and liver microsomes (LM). For phase I microsomal stability assays, analogs (10 µM in <1% acetonitrile) were incubated in PBS containing liver microsomes, with or without cofactors ([22]). Microsomal controls (without cofactors) were used to determine non-enzymatic degradation. All experiments were incubated at 37°C for 1h and performed in duplicate. Reactions were stopped with acetonitrile and analyzed as described below.
ART631 was extracted from 25 µL plasma or microsomal solutions with 100 µL acetonitrile containing artemisinin (i.e. the natural product) as internal standard. […] Mobile phase A was ammonium acetate (2mM) containing 0.1% formic acid, and mobile phase B was acetonitrile containing 0.1% formic acid. The gradient started with mobile phase B and was held at 40% for 0.5 minutes with a flow rate of 0.4 mL/min, then increased to 100% over 1.5 minutes and held for 2.0 minutes, and finally returned back to 40% mobile phase B and allowed to equilibrate for 2.0 minutes. An AB Sciex 5500 triple quadrupole mass spectrometer operated in positive electrospray ionization mode was used for the detection of ART631. For stability studies, the ratio of ART631 to the internal standard, artemisinin, was assessed. […]

[2] = Phase I microsomal stability, human liver microsomes; format: in vitro ADME
Procedure: as §2
ART631 was extracted from 25 µL plasma or microsomal solutions with 100 µL acetonitrile containing artemisinin (i.e. the natural product) as internal standard. […] Mobile phase A was ammonium acetate (2mM) containing 0.1% formic acid, and mobile phase B was acetonitrile containing 0.1% formic acid. The gradient started with mobile phase B and was held at 40% for 0.5 minutes with a flow rate of 0.4 mL/min, then increased to 100% over 1.5 minutes and held for 2.0 minutes, and finally returned back to 40% mobile phase B and allowed to equilibrate for 2.0 minutes. An AB Sciex 5500 triple quadrupole mass spectrometer operated in positive electrospray ionization mode was used for the detection of ART631. For stability studies, the ratio of ART631 to the internal standard, artemisinin, was assessed. Calibration curves for ART631 were computed using the ratio of the peak area to that of the internal standard by using a quadratic equation with a 1/x^2 weighting function over the range of 8-1585 nM with dilutions of up to 1:10 (v/v).

AML45 PDX = experiment: luc-labeled AML45 patient-derived xenograft; format: in vivo, NRG mice; details: ART631 monotherapy p=0.0029
Description: Immunodeficient NOD-Rag1^nullIL2rg^null (NRG) mice were purchased from Jackson Laboratory (Bar Harbor, ME), bred and housed at the University of Maryland Baltimore. Similar to our previous publication ([20]). mice were transplanted IV with luc-labeled human AML cell lines or cryopreserved AML patient cells on day -10, and baseline total body luminescence was quantified on day 0 by Xenogen bioluminescence imaging (Xenogen IVIS Spectrum; PerkinElmer, Waltham, MA). Mice were allocated to treatment groups so that each group had similar average day 0 luminescence, then groups were administered drugs per oral (PO; gavage). Luminescence of each mouse was assessed over time and compared with that mouse’s day 0 luminescence (fold-change AML burden). Clinical behavior, appearance, weight, and survival were also monitored.
We then compared the efficacy of 15 mg/kg/d ART631 monotherapy, versus 150 mg/kg/d VEN plus 30 mg/kg/d SOR, versus ART631 combined with VEN plus SOR (i.e. SAV) at the previously indicated doses, using a luc-labeled AML45 PDX model ( Figure 9A ). […]
Figure 9 VEN plus SOR plus ART631 inhibited growth of an AML PDX. […] (A) After Xenogen quantification of baseline total body luminescence on day 0, mice were placed into balanced experimental groups prior to drug administration via gavage, then treated per our previously established MTD PO x 5 day schedule (5 days on, 9 days off). […]

Compound: C=CCO/N=C(/C[C@H]1O[C@@H]2O[C@@]3(C)CC[C@H]4[C@H](C)CC[C@@H]([C@H]1C)[C@@]24OO3)[C@H]1O[C@@H]2O[C@@]3(C)CC[C@H]4[C@H](C)CC[C@@H]([C@H]1C)[C@@]24OO3 [ART631]
- pIC50 (K562): < 6.00
- pIC50 (10 human AML cell lines; Homo sapiens, ML2, MOLM14, MV4;11, THP1, KG1a, U937, read-out: IC50s in cell lines with adverse risk cytogenetic and molecular features): > 7.30
- number of human AML cell lines whose growth was inhibited (10 human AML cell lines; of 10 human AML cell lines tested): 9
- pIC50 (10 human AML cell lines; range over the inhibited cell lines of 10 human AML cell lines, read-out: IC50 range): 7.35 to 7.70
- percentage remaining, Plasma (EDTA) Human [1]: 60%
- percentage remaining, Phase I Metabolism HLM NADPH(+) ([2]; 10 µM, 37°C, 1h, with cofactors): 60%
- percentage remaining, Phase I Metabolism HLM NADPH(-) ([2]; 10 µM, 37°C, 1h, without cofactors): 86%
- degradation in human liver microsomes with co-factors ([2]; NADPH-dependent phase I metabolism): ~ 30%
- survival versus vehicle (AML45 PDX): statistically significant increase in survival
